PubChem BioAssay (NCI)
Several values for one entry are separate records, joined by “and”; a condition that tells them apart may be missing. Equal entries are not always repeated.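 Results reflect a 48-hour exposure of cells in 96-well plates to compound at five concentrations. At the GI50, growth is halved. TGI is the concentration that stops growth completely.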

These molecules were tested on BT-549 breast (assay: NCI anticancer screen, dose series, 48 h).

| Compound | TGI | GI50 |
| --- | --- | --- |
| O=C1c2cccnc2-c2nccc3c2c1nc1cc(Br)ccc13 | 1.23 µM | – |
| NC(CCC(=O)NC(CSCC1C(=O)Nc2ccccc21)C(=O)NCC(=O)O)C(=O)O (stereo unspecified) | 15.9 µM | – |
| NNC(=O)CSc1nc2ccccc2c(=O)n1N | > 100 µM | – |
| CC(=O)NC1c2ccccc2C(C)(C)C12CCC1(CC2)OCCO1 (stereo unspecified) | > 100 µM | – |
| CC1=NNC(=O)C1C(CC(=O)c1c[nH]c2ccccc12)C(=O)O (stereo unspecified) | > 100 µM | – |
| CN1COCc2c1ccc1cc3ccc4c(c3nc21)COCN4S(C)(=O)=O | > 100 µM | – |
| Oc1cccc(-c2nc3cc(F)ccc3s2)c1 | 45.1 µM | – |
| CC(C(O)Cc1ccccc1)N(C)N=Nc1ccc([N+](=O)[O-])cc1 (stereo unspecified) | 40.4 µM | – |
| CC(C)NC(=O)OCCN=c1c2ccccc2ccc2ccccc12 | > 100 µM | – |
| CN(C)CCOC1(Cc2ccc(F)cc2)CCC(C(C)(C)C)CC1 (stereo unspecified) | 13.3 µM and 20.9 µM | 3.29 µM and 8.02 µM |
| On1c(-c2ccccc2)nc2ccccc2c1=S | > 100 µM | – |
| CSc1cnc2ccccc2c1SC1CN(Cc2ccccc2)c2ccccc2C1=O (stereo unspecified) | > 100 µM | – |
| C=CC[C@]12C=C(OC)[C@@H](O)[C@](OC)(C(c3cc(OC)c4c(c3)OCO4)[C@H]1C)[C@H]2OC(C)=O (stereo partly specified) | > 100 µM | – |
| Cn1c2ccccc2c(=NNc2cccc(C(=O)O)c2)c2ccccc21 | 62.8 µM | – |

What follows are molecules tested on NCI-H226 lung (assay: NCI anticancer screen, dose series, 48 h).

| Compound | TGI |
| --- | --- |
| CCOC(=O)NC(Nc1ccc([N+](=O)[O-])cc1)(C(F)(F)F)C(F)(F)F | > 100 µM |
| C[N+]12CCCCC1C(CN1C(=O)Cc3c4ccccc4c(c4ccccc34)CC1=O)CCC2 (stereo unspecified) | > 100 µM |
| CC(=O)O[C@H]1CC[C@@]2(C)C(=CC[C@H]3[C@@H]4C[C@H](N5CCOCC5)[C@H](OC(C)=O)[C@@]4(C)CC[C@@H]32)C1 | > 100 µM |
| CCC1(C)C=Cc2c(cc(O)c3c(=O)c4ccccc4n(C)c23)O1 (stereo unspecified) | > 10 µM |
| O=[N+]([O-])/C(C(Cl)=C(Cl)Cl)=C(\N1CCCCC1)n1cncn1 | 40.3 µM |
| O=C1c2cccnc2-c2nccc3c2c1nc1cc(Br)ccc13 | 0.855 µM |
| NC(CCC(=O)NC(CSCC1C(=O)Nc2ccccc21)C(=O)NCC(=O)O)C(=O)O (stereo unspecified) | 21.9 µM |
| NNC(=O)CSc1nc2ccccc2c(=O)n1N | > 100 µM |
| CC(=O)NC1c2ccccc2C(C)(C)C12CCC1(CC2)OCCO1 (stereo unspecified) | > 100 µM |
| CC1=NNC(=O)C1C(CC(=O)c1c[nH]c2ccccc12)C(=O)O (stereo unspecified) | > 100 µM |
| CN1COCc2c1ccc1cc3ccc4c(c3nc21)COCN4S(C)(=O)=O | > 100 µM |
| Oc1cccc(-c2nc3cc(F)ccc3s2)c1 | 44 µM |
| CC(C(O)Cc1ccccc1)N(C)N=Nc1ccc([N+](=O)[O-])cc1 (stereo unspecified) | 39.5 µM |
| CC(C)NC(=O)OCCN=c1c2ccccc2ccc2ccccc12 | > 100 µM |
| CN(C)CCOC1(Cc2ccc(F)cc2)CCC(C(C)(C)C)CC1 (stereo unspecified) | 27.5 µM and 26.8 µM |
| On1c(-c2ccccc2)nc2ccccc2c1=S | > 100 µM |
| CSc1cnc2ccccc2c1SC1CN(Cc2ccccc2)c2ccccc2C1=O (stereo unspecified) | > 100 µM |
| C=CC[C@]12C=C(OC)[C@@H](O)[C@](OC)(C(c3cc(OC)c4c(c3)OCO4)[C@H]1C)[C@H]2OC(C)=O (stereo partly specified) | > 100 µM |
| Cn1c2ccccc2c(=NNc2cccc(C(=O)O)c2)c2ccccc21 | 48.6 µM |

Each molecule was assayed on T-47D breast (assay: NCI anticancer screen, dose series, 48 h).

| Compound | TGI |
| --- | --- |
| CCOC(=O)NC(Nc1ccc([N+](=O)[O-])cc1)(C(F)(F)F)C(F)(F)F | > 100 µM |
| C[N+]12CCCCC1C(CN1C(=O)Cc3c4ccccc4c(c4ccccc34)CC1=O)CCC2 (stereo unspecified) | > 100 µM |
| CC(=O)O[C@H]1CC[C@@]2(C)C(=CC[C@H]3[C@@H]4C[C@H](N5CCOCC5)[C@H](OC(C)=O)[C@@]4(C)CC[C@@H]32)C1 | > 100 µM |
| CCC1(C)C=Cc2c(cc(O)c3c(=O)c4ccccc4n(C)c23)O1 (stereo unspecified) | > 10 µM |
| O=[N+]([O-])/C(C(Cl)=C(Cl)Cl)=C(\N1CCCCC1)n1cncn1 | 38.3 µM |
| O=C1c2cccnc2-c2nccc3c2c1nc1cc(Br)ccc13 | 0.848 µM |
| NC(CCC(=O)NC(CSCC1C(=O)Nc2ccccc21)C(=O)NCC(=O)O)C(=O)O (stereo unspecified) | > 23.3 µM |
| NNC(=O)CSc1nc2ccccc2c(=O)n1N | > 100 µM |
| CC(=O)NC1c2ccccc2C(C)(C)C12CCC1(CC2)OCCO1 (stereo unspecified) | > 100 µM |
| CC1=NNC(=O)C1C(CC(=O)c1c[nH]c2ccccc12)C(=O)O (stereo unspecified) | > 100 µM |
| CN1COCc2c1ccc1cc3ccc4c(c3nc21)COCN4S(C)(=O)=O | > 100 µM |
| Oc1cccc(-c2nc3cc(F)ccc3s2)c1 | 14.2 µM |
| CC(C(O)Cc1ccccc1)N(C)N=Nc1ccc([N+](=O)[O-])cc1 (stereo unspecified) | 74.5 µM |
| CC(C)NC(=O)OCCN=c1c2ccccc2ccc2ccccc12 | 67.6 µM |
| CN(C)CCOC1(Cc2ccc(F)cc2)CCC(C(C)(C)C)CC1 (stereo unspecified) | 17.1 µM and 13.7 µM |
| On1c(-c2ccccc2)nc2ccccc2c1=S | > 100 µM |
| CSc1cnc2ccccc2c1SC1CN(Cc2ccccc2)c2ccccc2C1=O (stereo unspecified) | > 100 µM |
| C=CC[C@]12C=C(OC)[C@@H](O)[C@](OC)(C(c3cc(OC)c4c(c3)OCO4)[C@H]1C)[C@H]2OC(C)=O (stereo partly specified) | > 100 µM |
| Cn1c2ccccc2c(=NNc2cccc(C(=O)O)c2)c2ccccc21 | 40.9 µM |

These molecules were tested on MDA-N (assay: NCI anticancer screen, dose series, 48 h).

| Compound | TGI |
| --- | --- |
| CCOC(=O)NC(Nc1ccc([N+](=O)[O-])cc1)(C(F)(F)F)C(F)(F)F | 54.7 µM |
| C[N+]12CCCCC1C(CN1C(=O)Cc3c4ccccc4c(c4ccccc34)CC1=O)CCC2 (stereo unspecified) | > 100 µM |
| CC(=O)O[C@H]1CC[C@@]2(C)C(=CC[C@H]3[C@@H]4C[C@H](N5CCOCC5)[C@H](OC(C)=O)[C@@]4(C)CC[C@@H]32)C1 | > 100 µM |
| CCC1(C)C=Cc2c(cc(O)c3c(=O)c4ccccc4n(C)c23)O1 (stereo unspecified) | > 10 µM |
| O=[N+]([O-])/C(C(Cl)=C(Cl)Cl)=C(\N1CCCCC1)n1cncn1 | 32.8 µM |
| O=C1c2cccnc2-c2nccc3c2c1nc1cc(Br)ccc13 | 0.732 µM |
| NC(CCC(=O)NC(CSCC1C(=O)Nc2ccccc21)C(=O)NCC(=O)O)C(=O)O (stereo unspecified) | 16.7 µM |
| NNC(=O)CSc1nc2ccccc2c(=O)n1N | > 100 µM |
| CC(=O)NC1c2ccccc2C(C)(C)C12CCC1(CC2)OCCO1 (stereo unspecified) | > 100 µM |
| CC1=NNC(=O)C1C(CC(=O)c1c[nH]c2ccccc12)C(=O)O (stereo unspecified) | > 100 µM |
| CN1COCc2c1ccc1cc3ccc4c(c3nc21)COCN4S(C)(=O)=O | > 100 µM |
| Oc1cccc(-c2nc3cc(F)ccc3s2)c1 | 61.8 µM |
| CC(C(O)Cc1ccccc1)N(C)N=Nc1ccc([N+](=O)[O-])cc1 (stereo unspecified) | 39.7 µM |
| CC(C)NC(=O)OCCN=c1c2ccccc2ccc2ccccc12 | > 100 µM |
| CN(C)CCOC1(Cc2ccc(F)cc2)CCC(C(C)(C)C)CC1 (stereo unspecified) | 17.3 µM and 10.5 µM |
| On1c(-c2ccccc2)nc2ccccc2c1=S | > 100 µM |
| CSc1cnc2ccccc2c1SC1CN(Cc2ccccc2)c2ccccc2C1=O (stereo unspecified) | > 100 µM |
| C=CC[C@]12C=C(OC)[C@@H](O)[C@](OC)(C(c3cc(OC)c4c(c3)OCO4)[C@H]1C)[C@H]2OC(C)=O (stereo partly specified) | > 100 µM |
| Cn1c2ccccc2c(=NNc2cccc(C(=O)O)c2)c2ccccc21 | 31.3 µM |

What follows are molecules tested on NCI/ADR-RES ovarian (assay: NCI anticancer screen, dose series, 48 h).

| Compound | TGI |
| --- | --- |
| CCOC(=O)NC(Nc1ccc([N+](=O)[O-])cc1)(C(F)(F)F)C(F)(F)F | > 100 µM |
| C[N+]12CCCCC1C(CN1C(=O)Cc3c4ccccc4c(c4ccccc34)CC1=O)CCC2 (stereo unspecified) | > 100 µM |
| CC(=O)O[C@H]1CC[C@@]2(C)C(=CC[C@H]3[C@@H]4C[C@H](N5CCOCC5)[C@H](OC(C)=O)[C@@]4(C)CC[C@@H]32)C1 | > 100 µM |
| CCC1(C)C=Cc2c(cc(O)c3c(=O)c4ccccc4n(C)c23)O1 (stereo unspecified) | > 10 µM |
| O=[N+]([O-])/C(C(Cl)=C(Cl)Cl)=C(\N1CCCCC1)n1cncn1 | 56 µM |
| O=C1c2cccnc2-c2nccc3c2c1nc1cc(Br)ccc13 | 0.0711 µM |
| NC(CCC(=O)NC(CSCC1C(=O)Nc2ccccc21)C(=O)NCC(=O)O)C(=O)O (stereo unspecified) | 19.7 µM |
| NNC(=O)CSc1nc2ccccc2c(=O)n1N | > 100 µM |
| CC(=O)NC1c2ccccc2C(C)(C)C12CCC1(CC2)OCCO1 (stereo unspecified) | > 100 µM |
| CC1=NNC(=O)C1C(CC(=O)c1c[nH]c2ccccc12)C(=O)O (stereo unspecified) | > 100 µM |
| CN1COCc2c1ccc1cc3ccc4c(c3nc21)COCN4S(C)(=O)=O | > 100 µM |
| Oc1cccc(-c2nc3cc(F)ccc3s2)c1 | 54.3 µM |
| CC(C(O)Cc1ccccc1)N(C)N=Nc1ccc([N+](=O)[O-])cc1 (stereo unspecified) | 39.9 µM |
| CC(C)NC(=O)OCCN=c1c2ccccc2ccc2ccccc12 | > 100 µM |
| CN(C)CCOC1(Cc2ccc(F)cc2)CCC(C(C)(C)C)CC1 (stereo unspecified) | 24.2 µM and 27.7 µM |
| On1c(-c2ccccc2)nc2ccccc2c1=S | > 100 µM |
| CSc1cnc2ccccc2c1SC1CN(Cc2ccccc2)c2ccccc2C1=O (stereo unspecified) | > 100 µM |
| C=CC[C@]12C=C(OC)[C@@H](O)[C@](OC)(C(c3cc(OC)c4c(c3)OCO4)[C@H]1C)[C@H]2OC(C)=O (stereo partly specified) | > 100 µM |
| Cn1c2ccccc2c(=NNc2cccc(C(=O)O)c2)c2ccccc21 | 67.7 µM |
